Bridge positions count the residues as written; N and C are the ends. Square brackets hold non-standard residues; d marks the D form. Peptide text beside a SMILES is read from it. * marks the point of attachment. Ileψ(thiazoline)Cys = CC[C@H](C)[C@H](N)C1=N[C@H](C(=O)*)CS1; dOrn = NCCC[C@@H](N)C(=O)O
What was measured:
[1] = tested on: E. histolytica axenic cultures (NIH:200); assay: Axenic culture study of E. histolytica (NIH:200), cell number reduction; assay type: cell-based, Entamoeba histolytica
Description: Axenic cultures are isolates of amoeba which have been adapted for growth in the absence of bacteria, i.e. they comprise sterile cultures. E. histolytica axenic cultures (NIH:200) were maintained according to the method of Diamond, J. Parasitol. 54, 1047-56 (1968) in TP-S-1 medium modified by replacing the vitamin solution with 2.5% NCTC 135. […] Amoebae were harvested by cooling tubes at 4° C. for 20 minutes in an ice-bath prior to centrifugation at 1,000 rpm for 8 minutes at 4° C. Assays were performed over 36-48 hours, rather than the 24 hour period used for xenic cultures, due to the more extended division time of axenic cultures. All assays were performed in triplicate.

Trichomonas vaginalis = Trichomonas vaginalis assay of other divalent metal salts of bacitracin (MIC); assay type: cell-based
Description: All isolates were treated with either bacitracin or zinc bacitracin.
Prior to being diluted with the medium, the bacitracins were initially solubilized in water to 250 mg/ml. The zinc salt was solubilized in acidified water (60 μl HC1/ml). Duplicate plates of each isolate were prepared. one set of plates was exposed to an aerobic environment; and, the second set was exposed to an anaerobic environment. An Oxoid HP 11 anaerobic gas chamber and BR 38 gas generating kit were used to produce the anaerobic environment.
The procedure of Example IV was repeated, substituting bacitracin salts of the following metals for zinc bacitracin: nickel, cadmium, cobalt, manganese, copper and iron. The MLCs of the bacitracin salts were out of range. However, the MICs indicate that, with the exception of ferrous bacitracin, complexation with a divalent metal salt enhanced the activity of bacitracin.

Tritrichomonas gallinae = Tritrichomonas gallinae assay (MLC); assay type: cell-based; details: isolate GH85
Description: A single T. gallinae isolate was collected and treated with bacitracin or zinc bacitracin in accordance with the procedure of Example IV. Duplicate plates of the isolate were prepared. one plate was exposed to an aerobic environment. The second plate was exposed to an anaerobic environment.

[2] = span depending upon culture conditions
[3] = span depending upon culture conditions, converted from IU/ml

Molecule	Cell number reduction compared to controls ([1]; axenic culture, 2.5 mg/ml)	Cell number reduction compared to controls ([1]; axenic culture, 5 mg/ml)	Cell number reduction compared to controls ([1]; axenic culture, 10 mg/ml)	Cell number reduction compared to controls ([1]; axenic culture, 15 mg/ml)	killing of amoeba ([1]; axenic culture, 20 mg/ml, 48 hours)	MIC (Trichomonas vaginalis; T. vaginalis isolate 1910)	MIC (Trichomonas vaginalis; T. vaginalis isolate UCH1)	MLC (Tritrichomonas gallinae; aerobic)	MLC (Tritrichomonas gallinae; anaerobic)	MLC (Tritrichomonas gallinae; [2])	MLC (Tritrichomonas gallinae; [3])	Cell number reduction compared to controls ([1]; axenic culture, 1 mg/ml)	Cell number reduction compared to controls ([1]; axenic culture, 2 mg/ml)	concentration required for lethality in axenic as opposed to xenic amoeba cultures ([1]; axenic versus xenic)
CC[C@H](C)[C@H](N)C1=N[C@H](C(=O)N[C@@H](CC(C)C)C(=O)N[C@H](CCC(=O)O)C(=O)N[C@H](C(=O)N[C@H]2CCCCNC(=O)[C@H](CC(N)=O)NC(=O)[C@@H](CC(=O)O)NC(=O)[C@H](Cc3cnc[nH]3)NC(=O)[C@@H](Cc3ccccc3)NC(=O)[C@H]([C@@H](C)CC)NC(=O)[C@@H](CCCN)NC2=O)[C@@H](C)CC)CS1 [Bacitracin, reference compound] ({Ileψ(thiazoline)Cys}-L[dE]IK[dOrn]I[dF]H[dD]N; lactam 4-C)	76.4%	92.3%	97.7%	99.9%	All amoeba were killed	10000 µg/mL	10000 µg/mL	2000 IU/ml	1500 IU/ml	1,500-2,000 IU/ml	21.43 to 28.57 mg/mL	–	–	–
Zinc bacitracin	–	> 99.5%	–	–	–	2500 to 5000 µg/mL	2500 µg/mL	250 IU/ml	300 IU/ml	250-300 IU/ml	3.91 to 4.87 mg/mL	68.3%	90.6%	2-3 times

Reference: patent publication US5300491A, “Treatment of protozoal infection” (priority 1992, dated 1994)
